Source: patent publication US20080299140A1, “Immunogenic Composition and Peptide Sequences for Prevention and Treatment of an Hsv Condition” (priority 2002, published 2008)
Changes are numbered by the printed parent chain. Read-outs that look alike come from different tables or passages of the source.

Assays:
[1] = target: T1, DRB3=HLA-DR(α1*0101,α3*0101) (Homo sapiens, UniProt P01903+P79483); assay: HLA-DR specific binding assay, DRB3 (DR52)
T1 construct: endogenous in cells; host or cells: STEILIN or 0206AD (both typed DRB3*0101)
T1 sequence (P79483 30-266, other chains not shown): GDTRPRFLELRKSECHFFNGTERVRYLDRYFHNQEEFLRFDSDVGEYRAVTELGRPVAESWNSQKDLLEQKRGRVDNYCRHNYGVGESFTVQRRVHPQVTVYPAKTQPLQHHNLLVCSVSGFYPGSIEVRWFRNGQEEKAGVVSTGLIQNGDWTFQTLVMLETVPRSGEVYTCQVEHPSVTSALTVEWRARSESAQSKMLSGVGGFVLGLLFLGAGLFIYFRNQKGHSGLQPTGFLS

[2] = target: T2, DR3=HLA-DR(α1*0101,α1*0301) (Homo sapiens, UniProt P01903+P01911, A100K/A102G/A103R/A169T/F55Y/I96L/K41T/L162R/M171V/P40S/Q125H/Q178H/Q39Y/R42S/S66N/T106N/T262R/W38E/Y61H); assay: HLA-DR specific binding assay, DR3
T2 construct: endogenous in cells; host or cells: STEILIN (EBV homozygous B cell line)

[3] = target: T3, DP402 DP (α1*0101, α1*0402) (Homo sapiens, UniProt P04440+P20036, A65V/A84D/A85E/L207M); assay: biochemical; type: binding
T3 sequence (P20036 29-260): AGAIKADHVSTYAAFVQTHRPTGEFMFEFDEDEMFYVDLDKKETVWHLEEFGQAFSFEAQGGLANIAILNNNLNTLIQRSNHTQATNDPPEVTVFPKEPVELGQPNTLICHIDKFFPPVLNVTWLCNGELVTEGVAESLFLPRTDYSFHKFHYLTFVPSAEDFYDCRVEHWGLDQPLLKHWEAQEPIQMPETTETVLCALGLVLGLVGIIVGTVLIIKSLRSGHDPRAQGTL
T3 sequence (P04440 30-258 A65V/A84D/A85E): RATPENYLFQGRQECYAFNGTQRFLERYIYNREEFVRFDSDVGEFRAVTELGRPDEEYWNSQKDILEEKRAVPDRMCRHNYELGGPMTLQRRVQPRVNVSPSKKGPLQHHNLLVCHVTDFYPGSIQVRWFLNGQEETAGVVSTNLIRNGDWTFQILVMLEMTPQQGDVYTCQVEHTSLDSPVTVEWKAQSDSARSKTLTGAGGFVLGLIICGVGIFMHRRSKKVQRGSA

[4] = target: T4, DR4=HLA-DR(α1*0101,α1*0401) (Homo sapiens, UniProt P01903+P01911, A100K/A169T/F76Y/I96L/K127E/L162R/M171V/N62H/P40V/Q125Y/R42H/S133A/S149N/S66Y/V115G/V209L/W38E); assay: biochemical; type: binding
T4 construct: endogenous in cells; host or cells: BOLETH (EBV homozygous B cell line)

[5] = target: T5, DR15=HLA-DR(α1*0101,α1*1501) (Homo sapiens, UniProt P01903+P01911); assay: HLA-DR specific binding assay, DR15
T5 construct: endogenous in cells; host or cells: EBV homozygous human B cell line

[6] = target: T6, DR7=HLA-DR(α1*0101,α1*0701) (Homo sapiens, UniProt P01903+P01911, A100R/A102G/A103Q/D57E/D86V/E43K/F76Y/K127E/L162R/M171V/P40G/Q125H/Q99D/R33Q/R42Y/R54Q/S133A/S66F/T210M/V115G/Y107V/Y59L/Y89S); assay: HLA-DR specific binding assay, DR7
T6 construct: endogenous in cells; host or cells: EBV homozygous human B cell line

[7] = target: T7, DRB4=HLA-DR(α1*0101,α4*0101) (Homo sapiens, UniProt P01903+P13762, G164S); assay: HLA-DR specific binding assay, DRB4 (DR53)
T7 construct: endogenous in cells

[8] = tested on: HLA-DR and HLA-DP molecules; assay: MHC class II binding assays, panel of twelve HLA class II molecules (number of alleles bound); conditions: number of the twelve class II MHC alleles bound; title: Threshold 600 nM/5 alleles
[9] = target: T8, DRB5=HLA-DR(α1*0101,α5*0101) (Homo sapiens, UniProt P01903+Q30154); assay: biochemical; type: binding; conditions: Table V; […]; read-out: IC50 DRB5
T8 construct: endogenous in cells; host or cells: EBV homozygous human B cell line
T8 sequence (Q30154 30-266, other chains not shown): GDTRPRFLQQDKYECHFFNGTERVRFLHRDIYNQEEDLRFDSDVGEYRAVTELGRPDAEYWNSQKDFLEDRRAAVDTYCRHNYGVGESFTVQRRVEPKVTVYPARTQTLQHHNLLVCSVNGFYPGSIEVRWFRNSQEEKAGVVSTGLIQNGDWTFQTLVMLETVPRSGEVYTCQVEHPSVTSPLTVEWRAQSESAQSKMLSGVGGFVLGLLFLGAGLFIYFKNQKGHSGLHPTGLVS

[10] = target: T9, DR13=HLA-DR(α1*0101,α1*1301) (Homo sapiens, UniProt P01903+P01911, A100E/A169T/K41T/L162R/M171V/P40S/Q125H/Q178H/Q39Y/Q99D/R42S/S66N/T262R/W38E/Y61H); assay: HLA-DR specific binding assay, DR13
T9 construct: endogenous in cells; host or cells: 0206AD (EBV homozygous B cell line)

[11] = target: T10, DP401=HLA-DP(α1*0101,α1*0401) (Homo sapiens, UniProt P04440+P20036); assay: biochemical; type: binding
T10 sequence (P20036 32-260 limits assumed): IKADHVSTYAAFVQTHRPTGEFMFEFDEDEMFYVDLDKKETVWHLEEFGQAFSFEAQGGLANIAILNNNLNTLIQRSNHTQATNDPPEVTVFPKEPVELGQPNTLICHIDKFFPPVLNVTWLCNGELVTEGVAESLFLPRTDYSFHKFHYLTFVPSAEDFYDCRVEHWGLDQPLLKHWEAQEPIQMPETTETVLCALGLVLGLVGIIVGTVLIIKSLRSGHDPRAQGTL
T10 sequence (P04440 30-258): T3 sequence (P04440 30-258 A65V/A84D/A85E) with V36A, D55A, E56A

[12] = target: T11, DR1=HLA-DR(α1*0101,α1*0101) (Homo sapiens, UniProt P01903+P01911, A100R/D57E/F55L/F60I/F76Y/I96L/L162R/M171V/P40L/Q125E/R42F/V115G/Y59C); assay: biochemical; type: binding
T11 construct: endogenous in cells; host or cells: EBV homozygous human B cell line

[13] = target: T12, DR11=HLA-DR(α1*0101,α1*1101) (Homo sapiens, UniProt P01903+P01911, A100R/A169T/A87E/I96F/K41T/L162R/M171V/P40S/Q125H/Q178H/Q39Y/Q99D/R42S/S66Y/T262R/V115G/W38E); assay: biochemical; type: binding
T12 construct: endogenous in cells; host or cells: SWEIG (EBV homozygous B cell line)

[14] = IC50, DRD3, Class II MHC allele DRD3 (so in the source)
[15] = IC50, DR3, Class II MHC allele DR3
[16] = Class II MHC allele DR4, read-out: IC50, DR4
[17] = Table V, […], read-out: IC50 DR4
[18] = Table V, […], read-out: IC50 DR1
[19] = […], Class II MHC allele DR1, read-out: IC50, DR1
[20] = Class II MHC allele DR11, read-out: IC50, DR11
[21] = Table V, […], read-out: IC50 DR11

SMILES	IC50 [1, 14] [nM]	IC50 ([1]; IC50 DRB3, Table V, […]) [nM]	IC50 [2, 15] [nM]	IC50 ([2]; IC50 DR3, Table V, […]) [nM]	IC50 ([3]; Class II MHC allele DP402) [nM]	IC50 ([3]; Table V, […]) [nM]	IC50 [4, 16] [nM]	IC50 [4, 17] [nM]	IC50 [5] [nM]	IC50 [6] [nM]	IC50 [7] [nM]	Range [8]	IC50 [9] [nM]	IC50 [10] [nM]	IC50 ([11]; Class II MHC allele DP401) [nM]	IC50 ([11]; Table V, […]) [nM]	IC50 [12, 18] [nM]	IC50 [12, 19] [nM]	IC50 [13, 20] [nM]	IC50 [13, 21] [nM]	further results
CC[C@H](C)[C@H](NC(=O)[C@H](CCSC)NC(=O)[C@H](CCC(=O)O)NC(=O)[C@H](CCCNC(=N)N)NC(=O)[C@H](C)NC(=O)[C@H](CCC(=O)O)NC(=O)[C@H](C)NC(=O)[C@H](CC(C)C)NC(=O)[C@@H](N)CCCCN)C(=O)N[C@@H](CCCNC(=N)N)C(=O)N[C@@H](Cc1ccc(O)cc1)C(=O)N[C@@H](CCSC)C(=O)N[C@@H](C)C(=O)N[C@@H](CC(C)C)C(=O)N[C@H](C(=O)N[C@@H](CO)C(=O)N[C@@H](C)C(=O)N[C@@H](CCSC)C(=O)N[C@@H](CCC(=O)O)C(=O)N[C@@H](CCCNC(=N)N)C(=O)N[C@H](C(=O)N[C@@H](CCC(=O)O)C(=O)N[C@@H](Cc1c[nH]cn1)C(=O)N[C@@H](CCCCN)C(=O)N[C@@H](C)C(=O)N[C@@H](CCCCN)C(=O)N[C@@H](CCCCN)C(=O)N[C@@H](CCCCN)C(=O)NCC(=O)N[C@H](C(=O)N[C@@H](CO)C(=O)N[C@@H](C)C(=O)O)[C@@H](C)O)[C@@H](C)O)C(C)C [HSV 1]	> 100000	> 100000	995	995	240	240	37	37	3	296	43	10	6	284	1610	1610	6	6	13	13	–
CC[C@H](C)[C@H](NC(=O)[C@H](CCCCN)NC(=O)[C@@H](NC(=O)[C@H](CC(C)C)NC(=O)[C@H](CCCNC(=N)N)NC(=O)[C@H](CC(C)C)NC(=O)[C@H](Cc1ccc(O)cc1)NC(=O)[C@@H](NC(=O)CNC(=O)[C@H](C)NC(=O)[C@@H](NC(=O)[C@H](CCC(=O)O)NC(=O)[C@H](Cc1ccccc1)NC(=O)[C@H](C)NC(=O)[C@@H]1CCCN1C(=O)[C@H](C)NC(=O)[C@H](Cc1c[nH]cn1)NC(=O)[C@H](CCSC)NC(=O)[C@H](CC(C)C)NC(=O)[C@H](Cc1ccccc1)NC(=O)CNC(=O)[C@H](CC(C)C)NC(=O)[C@H](CC(N)=O)NC(=O)[C@H](CC(=O)O)NC(=O)[C@@H](N)CCC(=O)O)[C@@H](C)O)[C@@H](C)O)C(C)C)C(=O)N[C@@H](CC(N)=O)C(=O)N[C@@H](CC(=O)O)C(=O)N[C@@H](Cc1c[nH]c2ccccc12)C(=O)N[C@H](C(=O)N[C@@H](CCC(=O)O)C(=O)N[C@H](C(=O)N[C@H](C(=O)N[C@@H](CCC(N)=O)C(=O)N[C@@H](Cc1ccccc1)C(=O)O)[C@@H](C)O)[C@@H](C)CC)[C@@H](C)O [HSV 34]	–	2020	–	10200	–	164	–	632	35	316	743	–	85	> 100000	–	115	–	–	–	175	IC50 ([12]; IC50 DR1): 40 nM
CC[C@H](C)[C@H](N)C(=O)N[C@H](C(=O)N[C@@H](CCC(N)=O)C(=O)N[C@@H](Cc1ccccc1)C(=O)N[C@H](C(=O)N[C@@H](CC(C)C)C(=O)N[C@@H](CCC(=O)O)C(=O)N[C@@H](Cc1c[nH]cn1)C(=O)N[C@@H](CCCNC(=N)N)C(=O)N[C@@H](C)C(=O)N[C@@H](CCCCN)C(=O)NCC(=O)N[C@@H](CO)C(=O)N[C@@H](CS)C(=O)N[C@@H](CCCCN)C(=O)N[C@@H](Cc1ccc(O)cc1)C(=O)N[C@@H](C)C(=O)N[C@@H](CC(C)C)C(=O)N1CCC[C@H]1C(=O)N[C@@H](CC(C)C)C(=O)N[C@@H](CCCNC(=N)N)C(=O)N[C@H](C(=O)N1CCC[C@H]1C(=O)N1CCC[C@H]1C(=O)N[C@@H](CO)C(=O)N[C@@H](C)C(=O)N[C@@H](CS)C(=O)N[C@@H](CC(C)C)C(=O)N[C@@H](CO)C(=O)N1CCC[C@H]1C(=O)N[C@@H](CCC(N)=O)C(=O)O)[C@@H](C)CC)[C@@H](C)CC)[C@@H](C)O [HSV 38]	–	–	–	–	–	–	–	–	–	–	–	8	–	–	–	–	–	–	–	–	–
CC[C@H](C)[C@H](NC(=O)[C@H](CCCCN)NC(=O)[C@H](CC(C)C)NC(=O)[C@H](CO)NC(=O)[C@H](Cc1ccc(O)cc1)NC(=O)[C@@H](NC(=O)[C@H](C)NC(=O)[C@@H](NC(=O)[C@@H](NC(=O)[C@H](CCCNC(=N)N)NC(=O)[C@@H](N)CCC(N)=O)[C@@H](C)O)C(C)C)C(C)C)C(=O)N[C@@H](C)C(=O)NCC(=O)N[C@@H](Cc1c[nH]c2ccccc12)C(=O)N[C@@H](Cc1c[nH]cn1)C(=O)NCC(=O)N1CCC[C@H]1C(=O)N[C@@H](CCCCN)C(=O)N[C@@H](C)C(=O)N1CCC[C@H]1C(=O)N[C@@H](Cc1ccc(O)cc1)C(=O)N[C@H](C(=O)N[C@@H](CO)C(=O)N[C@H](C(=O)N[C@@H](CC(C)C)C(=O)N[C@@H](CC(C)C)C(=O)N1CCC[C@H]1C(=O)N1CCC[C@H]1C(=O)N[C@@H](CCC(=O)O)C(=O)N[C@@H](CC(C)C)C(=O)O)[C@@H](C)O)[C@@H](C)O [HSV 40]	> 100000	> 100000	2390	2390	7210	7210	9920	9920	2	20	1160	4	–	1590	1360	1360	1160	1160	39	39	–
